Reference: ChEMBL document CHEMBL1151857, “A new psoralen derivative with enlarged antiproliferative properties” (Bioorg Med Chem Lett, 2009)
The source made the active and inactive calls. No cut-off for these calls is given here.

Experiments:
HeLa [1] = experiment: Photo-antiproliferative activity against human HeLa cells under dark condition; format: functional, cell-based
HeLa [2] = experiment: Photo-antiproliferative activity against human HeLa cells exposed to 365 nm, 0.793 Jcm'-2 UVA light; format: functional, cell-based; details: light or radiation study
Nucleic Acid = experiment: Binding affinity to DNA assessed as intercalation between base pairs by linear flow dichroism spectroscopy; format: nucleic-acid assay
Zone of skin = experiment: Phototoxicity in depilated guinea pig skin assessed as formation of erythema; format: tissue-based, Cavia porcellus

Row | IC50 (HeLa [1]) [µM] | IC50 (HeLa [2]) [µM] | Activity (Nucleic Acid) | SMILES | Activity (Zone of skin)
1 | 13.5 | 2.9 | Active | CN(C)CCCOc1c2oc(=O)ccc2cc2c1oc1nnccc12 | 
2 | > 20 |  |  | COc1c2occc2cc2ccc(=O)oc12 [METHOXSALEN] | Toxic
